The source of these data is publication PMC5598073, “A novel and efficient fungal delignification strategy based on versatile peroxidase for lignocellulose bioconversion” (Biotechnology for Biofuels, 2017).

Assay [1] deals with T1, Lac.
T1 construct: native secreted enzyme purified from solid corn stover cultures; single band
In words: spectrophotometric oxidation, […] nm. Format: biochemical, Physisporinus vitreus. The note with it: 50 mM malonate pH 4.5; read-out: K m (mol L^-1) / Lac.

The test system of assay [2] is T2, VP.
T2 construct: native secreted enzyme purified from solid corn stover cultures; single band
Put plainly: spectrophotometric oxidation, […] nm. The assay is classed as biochemical, Physisporinus vitreus. The conditions noted are these: 50 mM malonate pH 4.5, 0.1 mM H2O2, with or without 1 mM MnSO4 (not told per substrate); read-out: K m (mol L^-1) / VP.

Assay [3] concerns Lac. The note with it: read-out: K m (mol L^-1) / Lac; 50 mM malonate pH 4.5.
Assay [4] has as its system VP. The note with it: read-out: K m (mol L^-1) / VP; 50 mM malonate pH 4.5, 0.1 mM H2O2, with or without 1 mM MnSO4 (not told per substrate).
In assay [5] the test system is T1, Lac. In words: spectrophotometric oxidation, […] nm. Format: biochemical, Physisporinus vitreus. The note with it: 50 mM malonate pH 4.5; read-out: K m (mol L^-1) / Lac. The source holds these as a separate data set.
For assay [6], the system named is T2, VP. In words: spectrophotometric oxidation, […] nm. The conditions noted are these: 50 mM malonate pH 4.5, 0.1 mM H2O2, with or without 1 mM MnSO4 (not told per substrate); read-out: K m (mol L^-1) / VP. Format: biochemical, Physisporinus vitreus. This is another data set of the same source.
For assay [7], the system named is T2, VP. In words: spectrophotometric oxidation, […] nm. The assay is classed as biochemical, Physisporinus vitreus. The note with it: 50 mM malonate pH 4.5, 0.1 mM H2O2, with or without 1 mM MnSO4 (not told per substrate).
The test system of assay [8] is T2, VP. In words: spectrophotometric oxidation, […] nm. The assay is classed as biochemical, Physisporinus vitreus. The conditions noted are these: 50 mM malonate pH 4.5, 0.1 mM H2O2, with or without 1 mM MnSO4 (not told per substrate). This is another data set of the same source.

Read-outs that look alike come from different tables or passages of the source.

With `Cc1cccc(C)c1O` [2,6-DMP], the results for the Km with Lac [1] and in the assay on VP [2] were 280 µM and 44 µM, respectively.

For the compound `CCn1c(=NN=c2sc3cc(S(=O)(=O)O)ccc3n2CC)sc2cc(S(=O)(=O)O)ccc21` [ABTS], the Km with Lac [3] turned out to be 13 µM; with VP [4], 35 µM.

With `COc1ccccc1O` [Guaiacol], the Km is 900 µM in the assay with Lac [5] and 130 µM in the assay with VP [6].

Regarding `Nc1c(N=Nc2ccc(S(=O)(=O)CCOS(=O)(=O)O)cc2)c(S(=O)(=O)O)cc2cc(S(=O)(=O)O)c(N=Nc3ccc(S(=O)(=O)CCOS(=O)(=O)O)cc3)c(O)c12` [RB5], in the assay on VP [7], the Km was 14.2 µM.

In the case of `COc1ccc(CO)cc1OC` [VA], the Km in the assay on VP [8] stood at 213 µM.
